Patent publication US9707233B2, “Heterocyclylamines as PI3K inhibitors” (Incyte Corporation, priority 2011, dated 2017)

Molecular target: PI3Kδ (Homo sapiens (Human), UniProt O00329)
Test: PI3K enzyme assay, [γ-33P]ATP filter plate (Example A2), isoform δ
Type: biochemical
Details: as determined by Assay A2; 1000 μM ATP, 2.9 nM PI3Kδ
Description: PI3K isoforms α, β, δ and γ are purchased from Millipore (Bedford, Mass.).
Inhibitors are first diluted serially in DMSO and added to the plate wells before the addition of other reaction components. The final concentration of DMSO in the assay is 0.5%. The PI3K assays are carried out at room temperature in 20 mM MOPS, pH 6.7, 10 mM MgCl2, 5 mM DTT and CHAPS 0.03%. The reaction mixture is prepared containing 50 μM PIP2, kinase and varying concentration of inhibitors. Reactions are initiated by the addition of ATP containing 2.2 μCi [γ-^33P]ATP to a final concentration of 1000 μM. […] Reactions are incubated for 180 minutes and terminated by the addition of 100 μL of 1 M potassium phosphate pH 8.0, 30 mM EDTA quench buffer. A 100 μL aliquot of the reaction solution are then transferred to 96-well Millipore MultiScreen IP 0.45 μm PVDF filter plate (The filter plate is prewetted with 200 μL 100% ethanol, distilled water, and 1 M potassium phosphate pH 8.0, respectively). […] After drying by aspiration and blotting, the plate is air dried in an incubator at 37° C. overnight. Packard TopCount adapter (Millipore) is then attached to the plate followed with addition of 120 μL Microscint 20 scintillation cocktail (Perkin Elmer) in each well. After the plate sealing, the radioactivity of the product is determined by scintillation counting on Topcount (Perkin-Elmer). […]

Sequence of PI3Kδ (O00329 whole entry, canonical isoform): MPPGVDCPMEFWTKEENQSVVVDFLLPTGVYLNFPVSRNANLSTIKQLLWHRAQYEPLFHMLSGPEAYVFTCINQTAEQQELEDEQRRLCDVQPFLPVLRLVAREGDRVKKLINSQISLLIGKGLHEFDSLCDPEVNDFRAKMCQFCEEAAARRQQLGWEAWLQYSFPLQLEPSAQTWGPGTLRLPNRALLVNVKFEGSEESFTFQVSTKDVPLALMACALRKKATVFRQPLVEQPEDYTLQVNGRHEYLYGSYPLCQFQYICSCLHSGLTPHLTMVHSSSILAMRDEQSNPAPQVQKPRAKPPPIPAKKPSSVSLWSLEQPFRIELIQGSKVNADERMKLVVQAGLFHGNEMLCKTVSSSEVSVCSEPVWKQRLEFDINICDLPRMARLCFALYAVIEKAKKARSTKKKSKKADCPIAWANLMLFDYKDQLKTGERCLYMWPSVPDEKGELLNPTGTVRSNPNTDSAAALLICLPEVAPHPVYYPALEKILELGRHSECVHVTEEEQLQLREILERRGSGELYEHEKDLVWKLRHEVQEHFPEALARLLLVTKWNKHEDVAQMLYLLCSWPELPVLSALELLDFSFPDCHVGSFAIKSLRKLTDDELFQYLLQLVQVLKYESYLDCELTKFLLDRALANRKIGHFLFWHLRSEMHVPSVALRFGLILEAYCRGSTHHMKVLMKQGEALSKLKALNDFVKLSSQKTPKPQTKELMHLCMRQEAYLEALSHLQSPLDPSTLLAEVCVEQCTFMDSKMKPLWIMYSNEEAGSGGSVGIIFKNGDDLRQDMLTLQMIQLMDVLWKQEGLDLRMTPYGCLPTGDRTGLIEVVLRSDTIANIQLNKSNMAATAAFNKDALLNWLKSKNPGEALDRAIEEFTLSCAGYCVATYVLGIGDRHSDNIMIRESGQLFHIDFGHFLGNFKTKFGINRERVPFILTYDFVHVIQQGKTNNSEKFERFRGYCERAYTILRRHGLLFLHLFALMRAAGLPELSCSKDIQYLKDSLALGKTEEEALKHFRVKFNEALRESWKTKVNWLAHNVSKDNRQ
Sequence of PI3Kδ (P27986 whole entry partner, canonical isoform): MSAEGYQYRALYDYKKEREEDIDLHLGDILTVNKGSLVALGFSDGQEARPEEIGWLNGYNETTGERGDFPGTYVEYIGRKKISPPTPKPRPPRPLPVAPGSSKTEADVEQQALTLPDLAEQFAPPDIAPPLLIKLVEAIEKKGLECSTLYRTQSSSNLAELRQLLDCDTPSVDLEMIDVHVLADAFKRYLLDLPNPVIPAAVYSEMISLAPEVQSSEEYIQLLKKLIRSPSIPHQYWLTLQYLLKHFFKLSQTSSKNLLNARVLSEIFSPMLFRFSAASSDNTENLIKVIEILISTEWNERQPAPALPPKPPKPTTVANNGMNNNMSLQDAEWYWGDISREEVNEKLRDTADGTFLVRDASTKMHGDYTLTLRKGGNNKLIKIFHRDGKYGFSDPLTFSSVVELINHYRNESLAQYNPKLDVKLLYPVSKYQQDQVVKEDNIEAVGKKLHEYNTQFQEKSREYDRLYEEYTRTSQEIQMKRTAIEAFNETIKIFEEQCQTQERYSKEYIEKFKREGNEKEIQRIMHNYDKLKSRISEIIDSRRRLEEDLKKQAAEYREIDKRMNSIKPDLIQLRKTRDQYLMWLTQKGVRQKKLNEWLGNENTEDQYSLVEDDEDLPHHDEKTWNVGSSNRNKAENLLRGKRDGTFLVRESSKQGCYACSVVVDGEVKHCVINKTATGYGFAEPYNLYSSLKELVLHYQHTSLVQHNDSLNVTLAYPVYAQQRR

## COc1c([C@@H](C)n2nc(C)c3c(N)ncnc32)cc(Cl)c(C#N)c1C1CN(C[C@@H](C)O)C1 [Example 363, 4-((R)-1-(4-amino-3-methyl-1H-pyrazolo[3,4-d]pyrimidin-1-yl)ethyl)-6-chloro-2-(1-((R)-2-hydroxypropyl)azetidin-3-yl)-3-methoxybenzonitrile]
  IC50: 50 to 200 nM
